# Experimental data from PubChem BioAssay AID743276 (Broad Institute, 2014).
# Results filed as inconclusive are left out. Calls of active or inactive are those of the source.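 The calls were made as follows: active = compounds whose fitted cell loss curve, in every repeat run, reached half effect below twice the top dose; inconclusive = repeat runs disagree, or runs show weak or poorly fitted drops; inactive = every repeat run called inactive.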
# System: not listed separately
# Test: reduction of CAPAN-1 cell number – imaging, dry powder, set 3, dose response (AID 743276)
# Conditions: CAPAN-1 cell number, Hoechst imaging, 14 days; at 50 µM (top of the series)
row,SMILES,"activity change, negative = fewer cells"
1,CN(C)CCCNC(=S)N(CCN(C)C)Cc1cc2cc3c(cc2[nH]c1=O)OCCO3,-2.03% (inactive)
2,O=c1c2c(-c3ccccc3)csc2nc2c3ccccc3c(NCCN3CCOCC3)nn12,-15.7% (inactive)
3,CCCNc1nc(Cl)nc(NCc2cccnc2)n1,-7.79% (inactive)
4,CCN(CC)CCCN(Cc1cc2cc3c(cc2[nH]c1=O)OCO3)C(=S)NCCCN(C)C,-1.27% (inactive)

# System: CAPAN-1 cell number, Hoechst imaging, 14 days
# Test: as above
# Conditions: not given
row,SMILES,AC50 [µM]
1,COc1ccccc1Nc1nc(NCCCO)c2ccccc2n1,31.1
2,CN(C)CCCN(C(=O)c1nc2ccccc2s1)c1nc2ccc(F)cc2s1,17
3,CCCN(CCC)CCCNC(=S)Nc1ccc2nc(N3CCN(CC)CC3)cc(C)c2c1,22.8
4,Cn1nc(-c2ccc(Cl)cc2)c2cc(C(=O)NCCCN3CCCC3)sc21,3.72
5,Cc1cc(N2CCN(C)CC2)nc2ccc(NC(=S)NCCCN3CCN(C)CC3)cc12,43.7
6,Cc1cc(C)c2c(c1)c1nnc(SCCN3CCCCC3)nc1n2C,42.3
7,Cc1ccc2nc(-c3ccc(NC(=S)NC4CC(C)(C)NC(C)(C)C4)cc3)sc2c1,12.1
8,COc1ccccc1Nc1nc(NCCO)c2ccccc2n1,24.6
9,Cc1cc(C)c2sc(N(CCCN(C)C)C(=O)CN3C(=O)c4ccccc4C3=O)nc2c1,22.2
10,Cc1ccc(C(=O)c2oc3ccc(Cl)cc3c2NC(=O)CN2CCN(C)CC2)cc1,9.78
11,c1ccc(-c2cc(N3CCC(N4CCCC4)CC3)n3nccc3n2)cc1,46.1
12,COc1ccc2oc(C(=O)c3ccccc3)c(NC(=O)CN3CCN(C)CC3)c2c1,13.5
13,CCN(CC)CCN(C(=O)C1=COCCO1)c1nc2c(OC)ccc(OC)c2s1,47.5
14,CCN1CCN(CCCNC(=O)C2CCN(c3nnc(-n4c(C)ccc4C)s3)CC2)CC1,20.5
15,Cc1ccc2sc(N(CCCN(C)C)C(=O)c3ccc(S(=O)(=O)N(C)C4CCCCC4)cc3)nc2c1C,24
16,CCN1CCc2c(sc(NC(=O)c3ccc(OC)cc3OC)c2C(N)=O)C1,32.7
17,CN(C)CCCN(C(=O)c1ccc(C(=O)c2ccccc2)cc1)c1nc2cc3c(cc2s1)OCO3,12.7

row,SMILES,AC50 [µM]
1,CCN(CC)CCNC(=S)Nc1ccc2nc(N3CCN(CC)CC3)cc(C)c2c1,13.8
2,COc1ccc(-c2oc3ncnc(NCCCN4CCOCC4)c3c2-c2ccc(OC)cc2)cc1,43.8
3,CN1CCN(CCCNC(=O)c2cc3c(-c4ccc(Cl)cc4)nn(C)c3s2)CC1,10.5
4,CCCCN(CC)CCNC(=O)CCC(=O)Nc1ccc2nc(N3CCN(C)CC3)cc(C)c2c1,25.1
5,CCCCN(CC)CCNC(=O)c1cc2c(-c3ccc(Cl)cc3)nn(C)c2s1,3.57
6,Cc1c(C(=O)Nc2ccc(S(=O)(=O)N(C)C3CCN(C)CC3)cc2)oc2c(Cl)cccc12,11.2
7,C=C1Nc2cc(-c3ccc(Cl)cc3)nn2C(NCCN(C)C)=C1C,8.39
8,CC1(C)CC(NC(=O)c2ccc(Cl)c(S(=O)(=O)N(Cc3ccccc3)c3ccccc3)c2)CC(C)(C)N1,12.8
9,COc1ccc(C2NCCc3c2[nH]c2ccccc32)cc1COc1ccc(F)cc1 (stereo not drawn),18.7
10,CCCN1CCN(CCCNC(=S)Nc2ccc3nc(N4CCN(CC)CC4)cc(C)c3c2)CC1,24.7
11,CCN1CCN(c2cc(C)c3cc(NC(=O)c4ccccn4)ccc3n2)CC1,35.6
12,OCCNc1nc(Nc2ccccc2F)nc2ccccc12,32
13,CCCCN(CC)CCCNC(=S)Nc1ccc2nc(N3CCN(C)CC3)cc(C)c2c1,37.8
14,CN(C)CCCNC(=S)NCC(c1ccc(Cl)cc1Cl)c1c[nH]c2ccccc12 (stereo not drawn),27.4
15,Cc1cc(C)n(-c2nc(NCCN(C)C)c3c4c(sc3n2)CCCC4)n1,15.4
16,Cc1ccc2sc(N(CCCN(C)C)C(=O)c3ccc(S(=O)(=O)N(C)Cc4ccccc4)cc3)nc2c1C,9.25
17,CCN1CCN(C(=S)Nc2ccc3nc(N4CCN(C)CC4)cc(C)c3c2)CC1,10.7
